Measured values published in US11433136B2, “Polyacetal polymers, conjugates, particles and uses thereof” (THE GENERAL HOSPITAL CORPORATION, priority 2015, dated 2022).

System: orthotopic PAN02 pancreatic tumors
Assay: Orthotopic PAN02 pancreatic tumor study in lean and obese mice
Assay type: in vivo, mouse
Settings: for gene and protein expression of activated PSC marker αSMA in tumors: losartan 90 mg/Kg i.p. every day
Text: Wild-type (WT) C57BL/6 and FVB male mice were originally obtained from Jackson Laboratory (The Jackson Laboratory, Bar Harbor, Me.) and bred and maintained in our defined-flora colony. KPC (Ptf1-Cre/LSL-KRAS^G12D/p53-R172H) and iKRAS (p48-Cre;R26-rtTa-IRES-EGFP;TetO-Kras^G12D mice) mice were obtained. To generate an obese model, mice (6-week old) were given either 10% or a 60% fat diet (D12450J and D12492, Research Diets, New Brunswick, N.J.) for 10 weeks (or until tumor collection in spontaneous models), as previously described (Surwit, R. S., et al. Metabolism: clinical and experimental 44, 645-651 (1995)). For implanted tumor experiments, AK4.4 cells (KrasG12D and p53 ? /) were isolated from mice generating spontaneous pancreatic tumors (Ptf1-Cre/LSL-Kras^G12D/p53Lox/ ? ) (Bardeesy, N., et al. Proc Natl Acad Sci USA 103, 5947-5952 (2006)). Orthotopic pancreatic tumors were generated by implanting a small piece (1 mm^3) of viable tumor tissue (from a source tumor in a separate animal) into the pancreas of a 6-8 week-old male lean or obese FVB (AK4.4 model) or C57BL/6 (PAN02 model) mouse. PAN02 tumor chunks and AK4.4 cells were authenticated by IDEXX laboratories. (PAN02: IDEXX RADIL Case #22366-2013. AK4.4: IDEXX RADIL Case #27818-2014). For AT1- and AT2-knockout studies, tumors were implanted into the pancreas of a 6-8-week-old male lean or obese C57BL/6, agtr1a−/− or agtr2−/− mice. With exception of PAN02, these orthotopically grown pancreatic cancers are characterized by a dense collagenous stroma, a hallmark of pancreatic cancer desmoplasia (Diop-Frimpong, B., et al. Proc Natl Acad Sci USA 108, 2909-2914 (2011)).
For all experiments unless specified below, mice bearing orthotopic PAN02 or AK4.4 pancreatic tumors were randomized into treatment groups (or no treatment) and tumors were collected at day 21 after implantation. For tumor growth study with chemotherapy, mice were divided into treatment groups 7 days after implantation, and treated with either 5-FU (30 mg/Kg i.v. every 4 days) or an equal volume of saline by intravenous injection on days 7, 11 and 15 after implantation, with tumors collected at day 19. For tumor growth study with losartan, mice were treated with losartan (90 mg/Kg i.p. every day) or an equal volume of PBS intraperitoneally starting on day 5 after implantation and for the duration of the study. In the combined experiment of losartan and 5-FU, the same protocol was used for each drug as described above. TAN depletion by a Ly6G specific inhibitor (BioExcell, 4 mg/Kg i.p. every 2 days) was administered to PAN02 bearing animals starting at day 1 or day 7, and to AK4.4 bearing animals at day 7. IL-1β inhibition (MM425B, Endogen/Pierce Biotechnology, 2 mg/Kg i.p. every 2 days) was administered to PAN02 bearing animals starting at day 7. At the completion of the study, adipose tissue and tumor samples were collected, weighed, and processed for further analysis. When spontaneous models were used, tumors were collected when palpable.
To assess obesity-induced ECM remodeling and fibrosis fibrillar collagen accumulation was quantified using second harmonic generation imaging, and collagen-I content, hyaluronan, MMPs levels and fibrosis related signaling pathways (e.g. AT-I, CTGF, TSP 1, TGFβ1, and P38/ERK signaling) were measured by rtPCR array, immunohistochemistry and immunoblotting. The topographical distribution and density of cancer-associated fibroblasts (CAFs) in tumor sections was detected by staining for αSMA activated fibroblast marker. Vessel morphology and perfusion was assessed using standard histological analyses.
Mice bearing orthotopic PAN02 were injected with 30 mg/kg of 5-FU 3 weeks after tumor implantation, administered retro-orbitally 30 min prior to tumor removal. The tissue was dabbed of excess blood and then snap-frozen in liquid nitrogen for analysis. […]

`O=c1[nH]cc(F)c(=O)[nH]1` [Example 5-FU, 5-fluorouracil] was tested, and the “reduction in tumor weight as compared to untreated controls” value (lean mice, 3 doses of 5-FU 30 mg/kg BW q4d) was 50%, the “effect on tumor weight” value (obese mice, 3 doses of 5-FU 30 mg/kg BW q4d) was “did not significantly reduce tumor weight” and the “delivery of 5-FU to tumors” value (tumors in obese mice versus lean, 30 mg/kg, 30 min prior to tumor removal) was “decreased”.
For `CCCCc1nc(Cl)c(CO)n1Cc1ccc(-c2ccccc2-c2nn[nH]n2)cc1` [losartan], the “gene and protein expression of activated PSC marker αSMA in tumors” value (lean mice) was “only mildly”, the “response to chemotherapy with AT1 blockade” value (obese but not lean animals, losartan plus 5-FU) was “enhanced” and the “tumor weight, losartan monotherapy” value (obese mice) was “reduced tumor weight”. The “gene and protein expression of activated PSC marker αSMA in tumors” value (obese mice) was “reduce”, the “obesity-induced abnormal expression of desmoplasia-related markers and AT1 downstream signaling” value (obese mice, effects only modest in lean animals) was “normalized” and the “gene and protein expression of collagen-I and fibrillar collagen in tumors” value (obese, but not lean mice, losartan) was “decrease”.
